Source: patent US20100048545A1, “Compounds and Compositions for Use in the Prevention and Treatment of Disorders of Fat Metabolism and Obesity” (INNODIA INC., priority 2006, published 2010)
“Also recorded” adds a separate entry of the source. Like-named read-outs stand apart in the source and are kept apart here.

Columns and labels:
Sprague-Dawley rats = assay: 13-week oral toxicity study: body weight and lipid profiles of SD rats fed regular chow; format: in vivo
Procedure: Sprague-Dawley rats were received at 7-12 weeks of age (225-300 g). […] The control group received vehicle (water) alone. Body weights were recorded once prior to group assignment, and approximately one week prior to initiation of treatment. Then, body weights were recorded for all animals up to 1 day prior to dosing and weekly thereafter during the treatment period. At the end of the treatment period, a blood sample was withdrawn to measure plasma triglyceride and cholesterol levels.

[1] = system: Wistar rat model of diet-induced obesity; assay: Body fat (DEXA) and white adipose tissue weight in Wistar rat model of diet-induced obesity; format: in vivo, Wistar rats; conditions: 28 days
From the text: A total of 60 animals were used in the study. The animals were distributed into 6 groups; 1 group was fed standard chow, 1 group was fed a high fat, high sucrose (HFHS) diet with 28 days treatment, 1 untreated control group was fed a HFHS diet, and 1 untreated group was fed a HFHS diet, but with caloric intake restricted to match the caloric intake of the 4-OH treated animals (pair-fed animals). A fifth group was fed a high fat, high sucrose (HFHS) diet with 28 days treatment and received an acute oral administration of 4-OH prior to experimentation on Day 29 of the study, and a sixth group was fed a HFHS diet, but with caloric intake restricted to match the caloric intake of the 4-OH treated animals receiving an acute oral administration of 4-OH on Day 29 of the study (pair-fed animals). Each group was composed of 10 animals. […] Immediately prior to commencement of treatment the animals were evaluated by DEXA scanning (Dual Energy X-ray Absortiometry) to determine the baseline percentage of body weight related to fat. For the four weeks of treatment, the test article (4-OH) was dissolved in reverse osmosis water. 4-OH was aliquoted and kept at 4° C. […] Untreated animals received water twice daily.

[2] = system: Diet Induced Obesity (DIO)-Mice; format: in vivo
Procedure: A total of 40 animals were used in the study. The animals were distributed into 5 groups (4 treated, 1 control group, all on high fat diet). Each group was composed of 8 animals.
4-OH was aliquoted and kept at 4° C. […] Mice from groups 4 and 5 were treated twice daily with 50 and 100 mg/kg of compound 65a. All groups were treated by oral gavage. Treatment commenced on Day 0 and ended on Day 7 (FIG. 37A). Body weights were measured daily.

DIO-mice = conditions: for food consumption: 4-OH 50 or 100 mg/kg
From the text: The objective of this study was to evaluate the effect of chronic administration of 4-hydroxyisoleucine (4-OH, compound 14a) and Rosiglitazone, administered alone or in combination, on food consumption and body weight gain of DIO-mice. Both parameters were monitored for 1 week prior to the commencement of treatment, then for the 28 days of treatment and for an additional 7 days post-treatment.
A total of 72 animals were used in the study. The animals were distributed into 6 groups (5 treated, 1 control group, all on high fat diet). Each group was composed of 12 animals. The mice were randomized according to body weight and basal glycemia values following a 5±0.5 hour fasting period.
For the four weeks of treatment, the test articles were dissolved in reverse osmosis water. 4-Hydroxyisoleucine was aliquoted and kept at 4° C. (administration to groups 2, 3, and 6), while Rosiglitazone was freshly prepared daily and kept at 4° C. between the AM and PM administration to groups 4, 5, and 6. Control animals received reverse osmosis water twice daily (group 1). Mice from groups 2 and 3 were treated twice daily with 4-OH at 50 and 100 mg/kg, respectively. Animals from groups 4 and 5 received 1.5 and 5 mg/kg of Rosiglitazone, respectively. […] All groups were treated by oral gavage. Treatment commenced on Day 0 and ended on Day 28 (FIGS. 18A and 18C.
Food consumption was measured and averaged on a weekly basis beginning one week before the start of treatment as shown in FIGS. 18B and 18D as week −1. Similarly, food consumption was monitored for one week after treatment was stopped and is shown as week 5 in FIGS. 18B and 18D, In FIG. 18B, the food consumption over time for various treatment groups is illustrated by the bar graph.

[3] = system: lean mice subjected to a high fat diet; assay: Prevention of obesity in lean mice subjected to a high fat diet, 21 days; format: in vivo, C57BL/6 mice; conditions: for transient increase of caloric intake: HFD
From the text: C57BL/6 mice were fed a standard chow (LabDiet #5001; 12% of calories from fat) upon arrival and during the acclimation and pre-treatment periods. […] Treatment was initiated on the first day of experimentation (Day 1) and lasted 21 days. Animals from group 1 were fed the standard chow for the duration of the study and received water orally twice daily (ND: normal diet control). Mice from group 2 were given the high fat diet (HFD; 60% of calories from fat) starting on day 1 of experimentation and until day 21 of the study. These mice also received water by oral gavage and served as the high fat diet control (ND→HFD). Mice from group 3 and 4 were also fed the high fat diet upon start of treatment on day 1 and for the duration of the study but were treated orally twice daily with 100 and 150 mg/kg of 4-OH. From day 1 to day 21 of the study, body weight and food consumption were measured daily.

[4] = 100, 200, 400 mg/kg/day, Day 92

C[C@@H]([C@H](C)O)[C@H](N)C(=O)O [Compound 14a, (2S,3R,4S)-4-Hydroxyisoleucine]
average body weight at end of treatment, male rats (Sprague-Dawley rats; 200 mg/kg/day, 13 weeks): 527 g | average body weight at end of treatment, male rats (Sprague-Dawley rats; 400 mg/kg/day, 13 weeks): 520 g | reduction of triglycerides, significance (Sprague-Dawley rats; 400 mg/kg/day, male rats): statistically significant | cholesterol levels, male rats (Sprague-Dawley rats; [4]): reduced in a dose-dependant manner | triglyceride levels, male rats (Sprague-Dawley rats; [4]): reduced in a dose-dependant manner | body weight, male rats (Sprague-Dawley rats; 200 and 400 mg/kg/day once daily oral, 13 weeks, vs control): clear reduction of body weight compared to control rats | reduction of cholesterol, significance (Sprague-Dawley rats; 200 and 400 mg/kg/day, male rats): statistically significant | percentage change in fat composition relative to baseline (DEXA) ([1]; 100 mg/kg twice daily oral, HFHS ad libitum, p<0.01): significant reduction in percentage fat | weight of white adipose tissues compared with normal chow animals ([1]; 100 mg/kg twice daily): the same as untreated animals receiving normal chow | weight of white adipose tissue (epididymal, inguinal and retroperitoneal) ([1]; 100 mg/kg twice daily, vs pair fed untreated and HFHS controls): significant reduction in the weight of these tissues | tolerability of treatment ([2]; 50 and 100 mg/kg twice daily oral gavage, one week): well tolerated | weight gain ([2]; 50 and 100 mg/kg twice daily, first week of treatment): moderation of weight gain was observed | food consumption ([2]; first week of treatment): slight decrease in food consumption | weight gain (DIO-mice; 4-OH 100 mg/kg twice daily): Moderation of weight gain was observed | food consumption (DIO-mice; first week of treatment, listed as 4-OH): food consumption decreased; also recorded: reduction in food consumption during the first week, but not after | food consumption (DIO-mice; remainder of the treatment phase): consumption returned to pre-treatment levels | weight gain (DIO-mice; Rosiglitazone 1.5 mg/kg with 4-OH 50 mg/kg, relative to the group treated with Rosiglitazone alone): able to modulate the weight gain induced by Rosiglitazone | transient increase of caloric intake ([3]; 100 mg/kg): less pronounced | transient increase of caloric intake ([3]; 150 mg/kg): completely abolished this increase of caloric intake | caloric intake ([3]; 150 mg/kg, day 2 to day 6 of treatment): even lower than mice fed the standard chow | weight gain induced by high fat feeding ([3]; 100 and 150 mg/kg orally twice daily, 21 days): completely prevented | epididymal fat weight ([3]; 100 and 150 mg/kg, after 21 days, p<0.01): prevented significantly the increase of weight of the epididymal fat | body weight compared to ND mice ([3]; highest dose (150 mg/kg), high fat diet): decreased body weight compared to mice fed the standard chow
